Patent US20060269924A1, “Modulation of telomere-initiated cell signaling” (TRUSTEES OF BOSTON UNIVERSITY, priority 2003, published 2006)
{P} = phosphate

What was measured:
[1] = test system: human fibrosarcoma HT-1080 cells; assay: SA-β-Gal staining, HT-1080 cells; assay type: cell-based
Protocol: FIG. 13a: Exposure to T-oligo increases SA-β-Gal activity. HT-1080 cells were treated for 4 days with diluent alone or 40 μM T-oligo or the complementary control oligo, then stained and assayed for SA-β-Gal activity. FIG. 13b: Quantitative analysis of SA-β-Gal positive cells. Cells expressing SA-β-Gal activity were counted and presented as percentage of total cells in the cultures. Averages and standard deviations were calculated from 3 representative fields from each of 3 independent experiments. FIG. 13c: Effect of T-oligo on cell proliferation. Cells were treated for 4 days as in FIG. 12 and assayed for DNA synthesis by BrdU incorporation. FIG. 13d: Quantitative analysis of BrdU incorporation. Dark black nuclei indicate BrdU incorporated into nuclear DNA. BrdU positive cells were calculated and presented as percentage of total cells in the cultures. Averages and standard deviations were calculated from 3 representative fields from each of 3 independent experiments. FIG. 13e: Effect of T-oligo on pRb phosphorylation. Cells were treated as in FIG. 13a and were then collected for protein analysis by western blot using 30 μg total protein and probed for pRb-ser780*, ser795* and ser807/811* (pRb phosphorylated at serine 780, serine 795 and serine 807/811 respectively). Lanes D, T and C contain protein samples from cells treated with diluent, T-oligo and complementary oligo respectively. β-actin was used as a loading control.
Parallel cultures were treated as described in FIG. 13a. Cells were then washed once with PBS and refed with complete medium without additional treatment for 24 hours or 48 hours. FIG. 14a: SA-β-Gal activity. Cells were stained for SA-β-Gal activity. […]
TRF2^DN has been reported to induce a senescent phenotype in human fibrosarcoma HT-1080 cells. To determine whether exposure to the telomere 3′ overhang DNA (T-oligo) also induces senescence in these cells, HT-1080 cells (American Type Culture Collection; Manassas, Va.) were treated with either diluent alone, T-oligo or the complementary oligo as a control, for 4 days and then assessed for SA-β-Gal activity. […]

[2] = test system: keratinocyte cell line (SSC12F); assay: S-phase arrest by FACS in keratinocyte cell line; assay type: cell-based; conditions: 48 hours, 11mer-1 alone (10 μM per FIG. 3B)
Protocol: FIGS. 3A-3G are profiles showing the results of fluorescence activated cell sorting, for the following additions to the cells: FIG. 3A, diluent; FIG. 3B, 10 μM 11mer-1; FIG. 3C, 10 μM 11mer-1 and 1 μM 11mer-1-S; FIG. 3D, 10 μM 11mer-1 and 5 μM 11mer-1-S; FIG. 3E, 10 μM 11mer-1 and 10 μM 11mer-1-S; FIG. 3F, 20 μM 11mer-1-S; FIG. 3G, 10μM 11mer-1-S.
Forty-three percent of the cells were in the S phase, compared to 26% of the control, diluent-treated cells.

[3] = test system: p95 phosphorylated at serine 343; assay: p95 serine 343 phosphorylation after tankyrase siRNA, western blotting and densitometry; assay type: cell-based, human; conditions: 24 hours
Protocol: Paired cultures of human fibroblasts were treated once with tankyrase siRNA, with a non-specific siRNA (control) or were mock transfected as a second control. […] After an additional 24 hours, cells were collected and processed for western blotting using an antibody specific for p95 phosphorylated at serine 343, indicating p95 modification by activated ATM kinase. The film was then subjected to densitometry and the diluent control for each group of cells was set at 1.0 in arbitrary units (FIG. 19). As expected, in cells with normal tankyrase levels the T-oligo treated cells had twice the amount of phosphorylated p95, while the control oligo-treated or diluent-treated cells had only a 30-40% increase.

**Q.** Which results are given for “pGTTAGGGTTAG (DNA, 5' {P}, backbone not given here; listed as Homo sapiens) [Oligonucleotide 11mer-1]”?
**A.** SA-β-Gal activity after removal of oligo ([1]; HT-1080, 4 days 40 μM, then 1 and 2 days fresh medium without oligonucleotide): increase in SA-β-Gal activity; SA-β-Gal positive cells ([1]; HT-1080 cells, 40 μM, 4 days): 80±7%; cells in the S phase [2]: Forty-three; amount of phosphorylated p95 relative to diluent control ([3]; human fibroblasts with normal tankyrase levels): twice; level of p95 phosphorylation (densitometry, diluent control set at 1.0) ([3]; tankyrase knockdown group (tankyrase siRNA)): 1.1 arbitrary units
